Experiments:
[1] = test system: SK-MEL-2 (Melanoma); assay: NCI-60 screen (SRB, 48 h); conditions: Homo sapiens
[2] = test system: M14 (Melanoma); assay: NCI-60 screen (SRB, 48 h); conditions: Homo sapiens
[3] = test system: MALME-3M (Melanoma); assay: NCI-60 screen (SRB, 48 h); conditions: Homo sapiens
[4] = test system: A549/ATCC (NSC lung cancer); assay: NCI-60 screen (SRB, 48 h); conditions: Homo sapiens
[5] = test system: Renal Cancer subpanel; assay: NCI-60 screen, subpanel; conditions: Homo sapiens
[6] = test system: MCF7 (Breast cancer); assay: NCI-60 screen (SRB, 48 h); conditions: Homo sapiens
[7] = test system: Prostate cancer subpanel; assay: NCI-60 screen, subpanel; conditions: Homo sapiens
[8] = test system: SN12C (Renal cancer); assay: NCI-60 screen (SRB, 48 h); conditions: Homo sapiens
[9] = test system: T-47D (Breast cancer); assay: NCI-60 screen (SRB, 48 h); conditions: Homo sapiens, T47D
[10] = test system: Ovarian Cancer subpanel; assay: NCI-60 screen, subpanel; conditions: Homo sapiens
[11] = test system: HOP-62 (NSC lung cancer); assay: NCI-60 screen (SRB, 48 h); conditions: Homo sapiens
[12] = test system: COLO 205 (Colon cancer); assay: NCI-60 screen (SRB, 48 h); conditions: Homo sapiens
[13] = test system: NCI/ADR-RES (Ovarian cancer); assay: NCI-60 screen (SRB, 48 h); conditions: Homo sapiens
[14] = test system: OVCAR-8 (Ovarian cancer); assay: NCI-60 screen (SRB, 48 h); conditions: Homo sapiens
[15] = test system: NCI-H23 (NSC lung cancer); assay: NCI-60 screen (SRB, 48 h); conditions: Homo sapiens
[16] = test system: SNB-19 (CNS cancer); assay: NCI-60 screen (SRB, 48 h); conditions: Homo sapiens
[17] = test system: ACHN (Renal cancer); assay: NCI-60 screen (SRB, 48 h); conditions: Homo sapiens
[18] = test system: SF-295 (CNS cancer); assay: NCI-60 screen (SRB, 48 h); conditions: Homo sapiens
[19] = test system: K-562 (Leukemia); assay: NCI-60 screen (SRB, 48 h); conditions: Homo sapiens
[20] = test system: HOP-92 (NSC lung cancer); assay: NCI-60 screen (SRB, 48 h); conditions: Homo sapiens
[21] = test system: UACC-62 (Melanoma); assay: NCI-60 screen (SRB, 48 h); conditions: Homo sapiens
[22] = test system: HCT-15 (Colon cancer); assay: NCI-60 screen (SRB, 48 h); conditions: Homo sapiens
[23] = test system: HS 578T (Breast cancer); assay: NCI-60 screen (SRB, 48 h); conditions: Homo sapiens
[24] = test system: SK-MEL-28 (Melanoma); assay: NCI-60 screen (SRB, 48 h); conditions: Homo sapiens
[25] = test system: UO-31 (Renal cancer); assay: NCI-60 screen (SRB, 48 h); conditions: Homo sapiens
[26] = test system: SW-620 (Colon cancer); assay: NCI-60 screen (SRB, 48 h); conditions: Homo sapiens
[27] = test system: DU-145 (Prostate cancer); assay: NCI-60 screen (SRB, 48 h); conditions: Homo sapiens
[28] = test system: EKVX (NSC lung cancer); assay: NCI-60 screen (SRB, 48 h); conditions: Homo sapiens

C=C(C)C1CCC2(CO)CCC3(C)C(CCC4C5(C)CCCNC(C)(C)C5CCC43C)C12 (centres unmarked) [Compound 1, Azepanobetulin] showed a GI50 ([1]; SK-MEL-2) of 1.84 µM, an IC (TGI) ([1]; SK-MEL-2, 48 h, read-out: TGI) of 3.75 µM and a GI50 ([2]; M14) of 1.58 µM. For the same molecule, the IC (TGI) ([2]; M14, 48 h, read-out: TGI) was 3.13 µM, the CC50 ([2]; M14, read-out: LC50) was 6.19 µM and the GI50 [3] was 1.5 µM. The IC (TGI) ([3]; 48 h, read-out: TGI) was 3.05 µM, the CC50 ([3]; read-out: LC50) was 6.18 µM and the GI50 ([4]; A549) was 1.73 µM. The IC (TGI) ([4]; A549, 48 h, read-out: TGI) was 3.24 µM, the CC50 ([4]; A549, read-out: LC50) was 6.08 µM and the IC (TGI) ([5]; 48 h, read-out: TGI MG_MID) was 3.43 µM. It also gave a GI50 ([5]; read-out: GI50 MG_MID) of 1.71 µM, a CC50 ([5]; read-out: LC50 MG_MID) of 9.33 µM and a GI50 ([6]; MCF7) of 1.29 µM. For the same molecule, the IC (TGI) ([6]; MCF7, 48 h, read-out: TGI) was 2.77 µM, the CC50 ([6]; MCF7, read-out: LC50) was 5.94 µM and the IC (TGI) ([7]; 48 h, read-out: TGI MG_MID) was 2.98 µM. It also gave a GI50 ([7]; read-out: GI50 MG_MID) of 2.98 µM, a CC50 ([7]; read-out: LC50 MG_MID) of 5.66 µM and a GI50 [8] of 1.62 µM. For the same molecule, the IC (TGI) ([8]; 48 h, read-out: TGI) was 3.03 µM, the CC50 ([8]; read-out: LC50) was 5.69 µM and the GI50 [9] was 1.73 µM. The IC (TGI) ([9]; 48 h, read-out: TGI) was 3.71 µM, the CC50 ([9]; read-out: LC50) was 7.96 µM and the IC (TGI) ([10]; 48 h, read-out: TGI MG_MID) was 3.18 µM. The GI50 ([10]; read-out: GI50 MG_MID) was 1.65 µM, the CC50 ([10]; read-out: LC50 MG_MID) was 6.24 µM and the GI50 ([11]; HOP-62) was 1.81 µM. For the same molecule, the IC (TGI) ([11]; HOP-62, 48 h, read-out: TGI) was 3.42 µM, the CC50 ([11]; HOP-62, read-out: LC50) was 6.46 µM and the GI50 ([12]; COLO 205) was 1.54 µM. For the same molecule, the IC (TGI) ([12]; COLO 205, 48 h, read-out: TGI) was 3.24 µM, the CC50 ([12]; COLO 205, read-out: LC50) was 6.82 µM and the GI50 [13] was 1.63 µM. It also gave an IC (TGI) ([13]; 48 h, read-out: TGI) of 3.18 µM, a CC50 ([13]; read-out: LC50) of 6.18 µM and a GI50 ([14]; OVCAR-8) of 1.83 µM. For the same molecule, the IC (TGI) ([14]; OVCAR-8, 48 h, read-out: TGI) was 3.51 µM, the CC50 ([14]; OVCAR-8, read-out: LC50) was 6.73 µM and the GI50 ([15]; NCI-H23) was 1.71 µM. For the same molecule, the IC (TGI) ([15]; NCI-H23, 48 h, read-out: TGI) was 3.39 µM, the CC50 ([15]; NCI-H23, read-out: LC50) was 6.68 µM and the GI50 ([16]; SNB-19) was 1.75 µM. It also gave an IC (TGI) ([16]; SNB-19, 48 h, read-out: TGI) of 3.2 µM, a CC50 ([16]; SNB-19, read-out: LC50) of 5.86 µM and a GI50 [17] of 1.7 µM. The IC (TGI) ([17]; 48 h, read-out: TGI) was 3.09 µM, the CC50 ([17]; read-out: LC50) was 5.61 µM and the GI50 ([18]; SF-295) was 1.66 µM. It also gave an IC (TGI) ([18]; SF-295, 48 h, read-out: TGI) of 3.13 µM, a CC50 ([18]; SF-295, read-out: LC50) of 5.9 µM and a GI50 ([19]; K562) of 1.08 µM. The IC (TGI) ([19]; K562, 48 h, read-out: TGI) was 3.79 µM, the CC50 ([19]; K562, read-out: LC50) was > 100 µM and the GI50 ([20]; HOP-92) was 1.73 µM. The IC (TGI) ([20]; HOP-92, 48 h, read-out: TGI) was 3.33 µM, the CC50 ([20]; HOP-92, read-out: LC50) was 6.42 µM and the GI50 ([21]; UACC-62) was 1.82 µM. It also gave an IC (TGI) ([21]; UACC-62, 48 h, read-out: TGI) of 3.25 µM, a CC50 ([21]; UACC-62, read-out: LC50) of 5.8 µM and a GI50 ([22]; HCT-15) of 1.39 µM. For the same molecule, the IC (TGI) ([22]; HCT-15, 48 h, read-out: TGI) was 2.77 µM, the CC50 ([22]; HCT-15, read-out: LC50) was 5.52 µM and the GI50 [23] was 1.99 µM. It also gave an IC (TGI) ([23]; 48 h, read-out: TGI) of 4.79 µM, a CC50 ([23]; read-out: LC50) of 31 µM and a GI50 ([24]; SK-MEL-28) of 1.62 µM. It also gave an IC (TGI) ([24]; SK-MEL-28, 48 h, read-out: TGI) of 3.15 µM, a CC50 ([24]; SK-MEL-28, read-out: LC50) of 6.13 µM and a GI50 ([25]; UO-31) of 1.56 µM. It also gave an IC (TGI) ([25]; UO-31, 48 h, read-out: TGI) of 2.99 µM, a CC50 ([25]; UO-31, read-out: LC50) of 5.74 µM and a GI50 ([26]; SW-620) of 1.81 µM. For the same molecule, the IC (TGI) ([26]; SW-620, 48 h, read-out: TGI) was 3.41 µM, the CC50 ([26]; SW-620, read-out: LC50) was 6.44 µM and the GI50 ([27]; DU-145) was 3.02 µM. For the same molecule, the IC (TGI) ([27]; DU-145, 48 h, read-out: TGI) was 3.02 µM, the CC50 ([27]; DU-145, read-out: LC50) was 5.58 µM and the GI50 [28] was 1.55 µM. The IC (TGI) ([28]; 48 h, read-out: TGI) was 3.03 µM and the CC50 ([28]; read-out: LC50) was 5.92 µM.
